One assay deals with T1, Aβ1-42 (Homo sapiens, UniProt P05067).
T1 construct: dissolving Aβ1-42 or Tau-RD3 (Tau repeat domain 3) monomers in DMSO
Briefly: Amyloid-beta disaggregation test by Thioflavin-T analysis. Type of assay: biochemical. Conditions: for EC50: Aβ1-42 50 µM aggregated 24 hours, then compound 0 - 500 µM for 48 hours at 37 °C, concentration disaggregating 50 % of aggregates vs control, read-out: EC50 (µM) Aβ; for disaggregation effect for amyloid-beta protein aggregates: statement in words summarising the Thioflavin-T results. The procedure:
(§1) Each compound was dissolved in DMSO to a concentration of 10 mM. Then, the compounds were diluted with 6 % DMSO (in DW) for use.
(§2) Amyloid-beta and tau solutions were prepared by dissolving Aβ1-42 or Tau-RD3 (Tau repeat domain 3) monomers in DMSO to a concentration of 10 mM. Then, the solutions were diluted to 100 µM with DW and stored on ice.
(§3) Meanwhile, Thioflavin-T was dissolved in 50 mM glycine buffer (pH 8.5) to a concentration of 5 mM. Then, the solution was diluted to 5 µM with 50 mM glycine buffer (pH 8.5) and stored in the dark, protected from light.
(§4) The amyloid-beta and tau solutions prepared in Example 1.1 were each placed in 1.5 mL microcentrifuge tubes to a concentration of 50 µM or 35 µM, respectively, and then reacted at 37 °C for 24 hours.
(§5) To each 1.5 mL microcentrifuge tube in which the amyloid-beta and tau aggregation was complete, the compounds were added at concentrations ranging from 500 µM down to 0 µM by serial dilution, and then further reacted at 37 °C for 48 hours.
(§6) 25 µL of each completed reaction solution was added to each well of a 96-well fluorescence analysis plate, and 75 µL of the Thioflavin-T solution was added to each well. After reacting for 5 minutes at room temperature in the dark, the fluorescence value was measured at 450 nm (excitation) and 485 nm (emission) using a multi-mode microplate reader.
(§7) The fluorescence value of the group (control group) treated with only amyloid-beta or tau and aggregated for 72 hours was designated as 100 %. The fluorescence values measured after treating the amyloid-beta and tau aggregates (formed by reacting for 24 hours) with each compound by concentration and reacting for an additional 48 hours were converted to relative values.

Assay [1] deals with Tau-RD3 (Tau repeat domain 3) (Homo sapiens, UniProt P10636). Briefly: Tau disaggregation test by Thioflavin-T analysis. Type of assay: biochemical. Conditions: for EC50: Tau-RD3 35 µM aggregated 24 hours, then compound 0 - 500 µM for 48 hours at 37 °C, concentration disaggregating 50 % of aggregates vs control, read-out: EC50 (µM) Tau; for disaggregation effect for tau protein aggregates: statement in words summarising the Thioflavin-T results. The procedure:
as §1, §2, §3, §4, §5, §6, §7

Consider 29 molecules from patent publication EP4745117A1, “NOVEL INDENONE DERIVATIVE AND USE THEREOF” (Amyloid Solution Inc., priority 2023, dated 2025).

Where only a bound is given, the exact number is not on record here.

T1 sequence (P05067 672-713 limits assumed): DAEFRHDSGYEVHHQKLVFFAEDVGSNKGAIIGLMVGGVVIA
Sequence of Tau-RD3 (Tau repeat domain 3) (P10636 623-653 limits assumed): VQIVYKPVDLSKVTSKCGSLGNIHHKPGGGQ

As usually defined, the EC50 is the concentration giving half of the maximal effect. Consider `Cc1ncsc1C1=C(c2cccnc2)C(=O)c2cc(NC3CCCC3)ccc21` [Compound 49, 6-(cyclopentylamino)-3-(4-methylthiazol-5-yl)-2-(pyridin-3-yl)-1H-inden-1-one], for which the EC50 is below 20 µM at Aβ1-42 and above 250 µM in assay [1].

On to `Cc1ncsc1C1=C(c2cccnc2)C(=O)c2cc(N(C)C)ccc21` [Compound 62, 6-(dimethylamino)-3-(4-methylthiazol-5-yl)-2-(pyridin-3-yl)-1H-inden-1-one], for which the EC50 (at Aβ1-42; in assay [1]) was above 250 µM throughout.

As to `Cc1ncsc1C1=C(c2cnn(C)n2)C(=O)c2cc(OCCCc3ccccc3)ccc21` [Compound 33, 2-(2-methyl-2H-1,2,3-triazol-4-yl)-3-(4-methylthiazol-5-yl)-6-(3-phenylpropoxy)-1H-inden-1-one], the EC50 (at Aβ1-42; in assay [1]) was below 20 µM each time.

Turning to `Cc1ncsc1C1=C(c2cccnc2)C(=O)c2cc(NC3CCCN(c4ccccc4)C3)ccc21` (stereo not drawn) [Compound 58, 3-(4-methylthiazol-5-yl)-6-((1-phenylpiperidin-3-yl)amino)-2-(pyridin-3-yl)-1H-inden-1-one], the values for the EC50 (at Aβ1-42; in assay [1]) were below 20 µM and above 250 µM, respectively.

Consider `COc1ccc2c(c1)C(=O)C(c1ccccc1)=C2c1ccccc1` [Compound 2, 6-methoxy-2,3-diphenyl-1H-inden-1-one], for which the EC50 at Aβ1-42 is below 20 µM; in assay [1] it was above 250 µM.

Consider `Cc1ncsc1C1=C(c2ccc(N3CCN(C)CC3)cc2)C(=O)c2ccccc21` [Compound 85, 2-(4-(4-methylpiperazin-1-yl)phenyl)-3-(4-methylthiazol-5-yl)-1H-inden-1-one], for which the EC50 (at Aβ1-42; in assay [1]) was above 250 µM each time.

Turning to `CN(C)c1ccc2c(c1)C(=O)C(c1ccccc1)=C2c1ccccc1` [Compound 69, 6-(dimethylamino)-2,3-diphenyl-1H-inden-1-one], the EC50 on Aβ1-42 is below 20 µM; in assay [1], above 250 µM.

As to `CNC(=O)c1ccccc1C1=C(c2ccccc2C)c2ccccc2C1=O` [Compound 99, N-methyl-2-(1-oxo-3-(o-tolyl)-1H-inden-2-yl)benzamide], the EC50 (on Aβ1-42; in assay [1]) was above 250 µM throughout.

Turning to `Cc1ncsc1C1=C(c2cccnc2)C(=O)c2cc(NCCCc3ccccc3)ccc21` [Compound 20, 3-(4-methylthiazol-5-yl)-6-((3-phenylpropyl)amino)-2-(pyridin-3-yl)-1H-inden-1-one], at Aβ1-42, the EC50 is below 20 µM and the “disaggregation effect for amyloid-beta protein aggregates” value is “remarkably excellent disaggregation effect”. In assay [1], the EC50 is below 20 µM and the “disaggregation effect for tau protein aggregates” value is given as “remarkably excellent disaggregation effect”.

For the molecule `CNc1ccc2c(c1)C(=O)C(c1ccccc1)=C2c1ccccc1` [Compound 67, 6-(methylamino)-2,3-diphenyl-1H-inden-1-one], the EC50 (at Aβ1-42; in assay [1]) was above 250 µM throughout.

On to `COc1ccc2c(c1)C(=O)C(c1cncs1)=C2c1cncs1` [Compound 83-5, 6-methoxy-2,3-di(thiazol-5-yl)-1H-inden-1-one], for which the EC50 (at Aβ1-42; in assay [1]) was 20 to 100 µM each time.

Consider `O=C1C(c2cccc(N3CCOCC3)c2)=C(c2ccccc2)c2ccccc21` [Compound 18, 2-(3-morpholinophenyl)-3-phenyl-1H-inden-1-one], for which the EC50 at Aβ1-42 was below 20 µM; in assay [1] it was above 250 µM.

On to `Cc1cc(N2CCN(C)CC2)cc2c1C(c1ccccc1)=C(c1ccccc1)C2=O` [Compound 71, 4-methyl-6-(4-methylpiperazin-1-yl)-2,3-diphenyl-1H-inden-1-one], for which the results for the EC50 (on Aβ1-42; in assay [1]) were 20 to 100 µM and 100 to 250 µM, respectively.

Turning to `O=C1C(c2ccc(N3CCOCC3)cc2)=C(c2ccccc2)c2ccccc21` [Compound 17, 2-(4-morpholinophenyl)-3-phenyl-1H-inden-1-one], the EC50 at Aβ1-42 is below 20 µM; in assay [1] it was above 250 µM.

Turning to `O=C1C(c2cccnc2)=C(c2ccccc2)c2ccccc21` [Compound 7, 3-phenyl-2-(pyridin-3-yl)-1H-inden-1-one], the results for the EC50 (at Aβ1-42; in assay [1]) were below 20 µM and above 250 µM, respectively.

Consider `Cc1ncsc1C1=C(c2cccnc2)C(=O)c2cc(NCC3CCOCC3)ccc21` [Compound 52, 3-(4-methylthiazol-5-yl)-2-(pyridin-3-yl)-6-(((tetrahydro-2H-pyran-4-yl)methyl)amino)-1H-inden-1-one], for which the EC50 (on Aβ1-42; in assay [1]) was above 250 µM each time.

Turning to `COCCOc1ccc2c(c1)C(=O)C(c1cccnc1)=C2c1scnc1C` [Compound 37, 6-(2-methoxyethoxy)-3-(4-methylthiazol-5-yl)-2-(pyridin-3-yl)-1H-inden-1-one], the EC50 (on Aβ1-42; in assay [1]) was 20 to 100 µM throughout.

For the molecule `O=C1C(c2ccccc2)=C(c2ccc(CN3CCOCC3)cc2)c2ccccc21` [Compound 16, 3-(4-(morpholinomethyl)phenyl)-2-phenyl-1H-inden-1-one], the values for the EC50 (at Aβ1-42; in assay [1]) were 20 to 100 µM and above 250 µM, respectively.

As for `Cc1ncsc1C1=C(c2cccnc2)C(=O)c2cc(NC3CCOCC3)ccc21` [Compound 56, 3-(4-methylthiazol-5-yl)-2-(pyridin-3-yl)-6-((tetrahydro-2H-pyran-4-yl)amino)-1H-inden-1-one], the EC50 (on Aβ1-42; in assay [1]) was 20 to 100 µM throughout.

Take `Cc1ncsc1C1=C(c2cnccn2)C(=O)c2cc(OCCCc3ccccc3)ccc21` [Compound 41, 3-(4-methylthiazol-5-yl)-6-(3-phenylpropoxy)-2-(pyrazin-2-yl)-1H-inden-1-one]: the EC50 on Aβ1-42 was below 20 µM; in assay [1], above 250 µM.

Consider `Nc1ccc2c(c1)C(=O)C(c1ccccc1)=C2c1ccccc1` [Compound 68, 6-amino-2,3-diphenyl-1H-inden-1-one], for which the EC50 (on Aβ1-42; in assay [1]) was above 250 µM each time.

In the case of `Cc1ncsc1C1=C(c2cn(C)nn2)C(=O)c2cc(OCCCc3ccccc3)ccc21` [Compound 32, 2-(1-methyl-1H-1,2,3-triazol-4-yl)-3-(4-methylthiazol-5-yl)-6-(3-phenylpropoxy)-1H-inden-1-one], the EC50 (at Aβ1-42; in assay [1]) was below 20 µM each time.

Regarding `Cc1ncsc1C1=C(c2cccnc2)C(=O)c2cc(Oc3ccccc3)ccc21` [Compound 66, 3-(4-methylthiazol-5-yl)-6-phenoxy-2-(pyridin-3-yl)-1H-inden-1-one], on Aβ1-42, the EC50 was below 20 µM and the “disaggregation effect for amyloid-beta protein aggregates” value was “remarkably excellent disaggregation effect”. In addition, in assay [1], the EC50 is below 20 µM and the “disaggregation effect for tau protein aggregates” value was “remarkably excellent disaggregation effect”.

`COc1cc(OCCCc2ccccc2)cc2c1C(c1scnc1C)=C(c1cccnc1)C2=O` [Compound 47, 4-methoxy-3-(4-methylthiazol-5-yl)-6-(3-phenylpropoxy)-2-(pyridin-3-yl)-1H-inden-1-one]: on Aβ1-42, the EC50 is below 20 µM and the “disaggregation effect for amyloid-beta protein aggregates” value is reported as “remarkably excellent disaggregation effect”. Besides, in assay [1], the EC50 was below 20 µM and the “disaggregation effect for tau protein aggregates” value is given as “remarkably excellent disaggregation effect”.

As to `COc1ccc2c(c1)C(=O)C(c1cnccc1C)=C2c1scnc1C` [Compound 22, 6-methoxy-2-(4-methylpyridin-3-yl)-3-(4-methylthiazol-5-yl)-1H-inden-1-one], the EC50 was above 250 µM at Aβ1-42 and 20 to 100 µM in assay [1].

Take `CCOC(=O)c1ccccc1C1=C(c2ccccc2C)c2ccccc2C1=O` [Compound 99-7, ethyl 2-(1-oxo-3-(o-tolyl)-1H-inden-2-yl)benzoate]: the figures for the EC50 (at Aβ1-42; in assay [1]) were 100 to 250 µM and above 250 µM, respectively.

For `O=C1C(c2ccccc2)=C(c2ccc(N3CCOCC3)cc2)c2ccccc21` [Compound 14, 3-(4-morpholinophenyl)-2-phenyl-1H-inden-1-one], the EC50 at Aβ1-42 was below 20 µM; in assay [1], above 250 µM.

In the case of `Cc1scnc1C1=C(c2cccnc2)C(=O)c2cc(OCCCc3ccncc3)ccc21` [Compound 23, 3-(5-methylthiazol-4-yl)-2-(pyridin-3-yl)-6-(3-(pyridin-4-yl)propoxy)-1H-inden-1-one], at Aβ1-42, the EC50 was below 20 µM and the “disaggregation effect for amyloid-beta protein aggregates” value was “remarkably excellent disaggregation effect”. For the same molecule, in assay [1], the EC50 was below 20 µM and the “disaggregation effect for tau protein aggregates” value was “remarkably excellent disaggregation effect”.

Take `O=C1C(c2ccccc2)=C(c2ccccc2)c2ccc(Cl)cc21` [Compound 12-3, 6-chloro-2,3-diphenyl-1H-inden-1-one]: the EC50 on Aβ1-42 is 100 to 250 µM; in assay [1], above 250 µM.
